Tested on: breast ducts of live rabbits
Assay: Mannitol solution introduced into breast ducts of live rabbit: ductal fluid collection
Format: in vivo, New Zealand rabbit
Settings: for recovery (out-flow liquid collected from duct): about an hour after injection
Procedure: The objective of these experiments was to test the effects of the introduction of a solution containing mannitol on the secretion of fluid from the breast ducts of live rabbits. New Zealand rabbit #3242, female, from Kraelik Farm in California weighing 4.1 kg was used. The rabbit was anesthetized by injection of 200 mg of ketamine and 40 mg of Zylazine. A second injection of 100 mg of ketamine and 20 mg of xylazine was made 2 hours later to maintain the rabbit in a deep plane of anesthesia. The thorax and abdomen of the rabbit was shaved to expose the breasts and nipples.
A single lumen blue color catheter (O.D. 0.23″ ID 0.017; O.D. at the tip 0.011″-0.012″) was inserted into a duct in each nipple. Three nipples were tested, and 2 ducts per nipple were accessed with a catheter. The nipples were identified A, B, and C.
A duct on nipple A was injected with 0.20 ml of a 12.5% solution of D-Mannitol in H2O (available from Sigma Chemicals, St. Louis, Mo. cat# M-9546 lot 6710402: C6H14O6 FW 182.2) with a single catheter. The control duct on nipple A was injected with 0.20 ml of phosphate buffered saline (PBS). A microfuge tube was attached to the end of each catheter to collect out flow liquid. Ten minutes later 0.2 ml of a 12.5% solution of D-Mannitol in H2O was injected into the first duct and the second duct was injected with 0.20 ml of phosphate buffered saline, for a total volume injected in each duct of 0.40 ml.
A duct on nipple B was injected with 0.5 ml of a 12.5% solution of D-Mannitol in H2O with a single catheter. The control duct on nipple B was injected with […] of phosphate buffered saline (PBS). A microfuge tube was attached to the end of each catheter to collect out-flow liquid.
A duct on nipple C was injected with 0.7 ml of a 12.5% solution of D-Mannitol in H2O with a single catheter. The control duct on nipple C was injected with 0.70 ml of phosphate buffered saline (PBS). A microfuge tube was attached to the end of each catheter to collect out flow liquid.
About an hour after the fluid containing mannitol or PBS was injected into the ducts via the catheters, the microfuge tubes were checked for whether any fluid was returned.
Davidson green dye (1 ul) was added to each microfuge tube containing fluid for the purpose of taking a picture. The rabbit was euthanized by IV injection of supersaturated KC1. PBS (1.5 ul) was added to each collection. The cells were spun onto Shandon coated slide using megafunnel and cytospin-3 machine (Shandon, Inc. located in Pittsburgh, Pa.) at a speed of 1500/per minute for 15 minutes. The cells were fixed on the slide in 95% ethanol for 10 minutes. The cells were stained using Hematoxylin and Eosin (HE) method of cytology of collected fluid.

Structure (SMILES): OC[C@@H](O)[C@@H](O)[C@H](O)[C@H](O)CO [mannitol, D-Mannitol]
- ducts from which fluid can be collected (ducts injected with mannitol solution (PBS control: 1 out of 3)): three out of three
- recovery (out-flow liquid collected from duct) (nipple A, duct A1, 0.4 ml mannitol 12.5% in H2O injected intraductally (2 x 0.2 ml)): 310 ul liquid
- recovery (out-flow liquid collected from duct) (nipple B, duct B1, 0.5 ml mannitol 12.5% in H2O injected intraductally): 490 ul liquid
- recovery (out-flow liquid collected from duct) (nipple C, duct C1, 0.7 ml mannitol 12.5% in H2O injected intraductally): 280 ul liquid
